Results published in patent US20190127314A1, “HOMOVANILLIC ACID ESTER FOR REDUCING OR INHIBITING FATTY ACID ABSORPTION IN THE SMALL INTESTINE” (SYMRISE AG, priority 2016, published 2019).

System: differentiated Caco-2-cells
Experiment: Intestinal fatty acid resorption, QBT Fatty Acid Uptake Kit (BODIPY-dodecanoic acid)
Format: cell-based
Settings: Homo sapiens, fatty acid resorption AUC as percent of the vehicle treated control, 30 min preincubation, fluorescence measured over 1 h; for activity at 1 µM: 1 μM substance; for activity at 100 µM: 100 μM substance
Text: The ability of modulating the fatty acid resorption/absorption (as described in the scope of the present invention) of a substance or substance mixture can be determined or, respectively, evaluated e.g. according to the method described herein, by using Caco-2-cells (s. also the example section of the present text). Preferably, in the scope of the present text it is to be assumed that substances reducing or, respectively, inhibiting the fatty acid resorption (preferably when performing the method described herein, s. example section) are also suitable for the uses or, respectively, applications according to the invention and described herein. Preferably, the human colon cell line Caco-2 (ATCC-number HTB-37) is used, after differentiation to a phenotype related to entereocytes, as cell model for the resorption of free fatty acids into the small intestine. (Caco-2-cells are preferably cultivated at 37° C. and 5% CO2 content with Dulbecco's Modified Eagles Medium (DMEM) with 10% FBS, 2% L-Glutamine and 1% Penicillin/Streptomycin. The differentiation to enterocytes is preferably performed by an 18-days cultivation of the cells after reaching confluence.)
The resorption of free fatty acids in differentiated Caco-2-cells was analysed with the QBT Fatty Acid Uptake Kit (Molecular Devices Corporation, Germany), which uses the fluorescent fatty acid analogue BODIPY-dodecanoic acid. For preparing the assay, the differentiated Caco-2-cells are subjected to a one hour incubation in serum-free medium at standard cell culture conditions of a hunger phase. Subsequently, the test substances were added at 1 or 100 μM, diluted in Hank's balanced salt solution (HBSS of Lonza, Biozym-order number 882010)-buffer, treated with 20 mM HEPES (diluted from a 1M solution of Gibco, Thermo Fisher-order number 15630056) (in the following described as HBSS/HEPES-buffer). Controls were only treated with HBSS/HEPES-buffer. After a 30 minute preincubation at 37° C., the fluorescent fatty acid analogue was added, which was diluted in HBSS/HEPES-buffer (supplemented with 0.2% fatty acid free BSA [Sigma Aldrich, Germany]). The fluorescence signals were measured after excitation with 485 nm at an emission wavelength of 515 nm during a time of 1 h in a microtiter plate-reader (Synergy; BioTek, Germany). Starting from a time-signal-intensity curve resulting from the measurement, the area under the curve (AUC) was calculated to determine the cellular fatty acid resorption after treatment with the substances. The results obtained thereby are indicated as percent related to the control treatment (s. table 1).
Table 1: Results of the measurement of the inhibition of the fatty acid resorption in Caco-2-cells. The calculated area under the curve (AUC) is shown for tests at each 1 and 100 μM substance used (as percent of the vehicle treated control).
With the test for measurement shown in example 2, in total 25 compounds of formula (I) (as described herein) were measured for their inhibitory activity regarding the fatty acid resorption in Caco-2-cells for each two concentrations (1 and 100 μM) in triple determination. The obtained activity data was subsequently used for a structure-effect-analysis by using the software-package StarDrop (Optibrium Ltd) and Vortex (Dotmatics Ltd.). Thereby, an R-group analysis with the basic structure according to formula (II) was performed.

SMILES | activity at 1 µM | activity at 100 µM
COc1cc(CC(=O)OCC=C(C)C)ccc1O [Compound 4, 3-Methylbut-2-enyl-2-(4-hydroxy-3-methoxy-phenyl)acetate] | 101% | 80.9%
CCCCCOC(=O)Cc1ccc(O)c(OC)c1 [Compound 19, Pentyl-2-(4-hydroxy-3-methoxy-phenyl)acetate] | 101% | 92.9%
COc1cc(CC(=O)OC/C=C/c2ccccc2)ccc1O [Compound 2, [(E)-Cinnamyl]-2-(4-hydroxy-3-methoxy-phenyl)acetate] | 97.6% | 94.6%
COc1cc(CC(=O)O[C@@H]2C[C@H](C)CC[C@H]2C(C)C)ccc1O [Compound 15, (2-Isopropyl-5-methyl-cyclohexyl)-2-(4-hydroxy-3-methoxy-phenyl)acetate] | 95.5% | 58.1%
CCC(C)COC(=O)Cc1ccc(O)c(OC)c1 (stereo not drawn) [Compound 11, 2-Methylbutyl-2-(4-hydroxy-3-methoxy-phenyl)acetate] | 99% | 79%
CC/C=C\CCOC(=O)Cc1ccc(O)c(OC)c1 [Compound 6, [(Z)-Hex-3-enyl]-2-(4-hydroxy-3-methoxy-phenyl)acetate] | 99.9% | 90.4%
CCCCCC(C)OC(=O)Cc1ccc(O)c(OC)c1 (stereo not drawn) [Compound 14, 1-Methyl hexyl-2-(4-hydroxy-3-methoxy-phenyl)acetate] | 93.4% | 67.5%
CCCCC(C)OC(=O)Cc1ccc(O)c(OC)c1 (stereo not drawn) [Compound 12, 1-Methylpentyl-2-(4-hydroxy-3-methoxy-phenyl)acetate] | 89.5% | 53.3%
CCOC(=O)Cc1ccc(O)c(OC)c1 [Compound 16, Ethyl-2-(4-hydroxy-3-methoxy-phenyl)acetate] | 105% | 93.8%
CCC(C)OC(=O)Cc1ccc(O)c(OC)c1 (stereo not drawn) [Compound 8, sec-Butyl-2-(4-hydroxy-3-methoxy-phenyl)acetate] | 92% | 61.9%
COc1cc(CC(=O)OC(C)C)ccc1O [Compound 7, Isopropyl-2-(4-hydroxy-3-methoxy-phenyl)acetate] | 91.6% | 61.6%
CCCCCCOC(=O)Cc1ccc(O)c(OC)c1 [Compound 20, Hexyl-2-(4-hydroxy-3-methoxy-phenyl)acetate] | 102% | 91.4%
COc1cc(CC(=O)OCCc2ccccc2)ccc1O [Compound 1, 2-Phenylethyl-2-(4-hydroxy-3-methoxy-phenyl)acetate] | 103% | 103%
CCCCCCCOC(=O)Cc1ccc(O)c(OC)c1 [Compound 13, Heptyl-2-(4-hydroxy-3-methoxy-phenyl)acetate] | 103% | 92.7%
CCCCOC(=O)Cc1ccc(O)c(OC)c1 [Compound 18, Butyl-2-(4-hydroxy-3-methoxy-phenyl)acetate] | 102% | 90.7%
CCCOC(=O)Cc1ccc(O)c(OC)c1 [Compound 17, Propyl-2-(4-hydroxy-3-methoxy-phenyl)acetate] | 101% | 89.7%
COc1cc(CC(=O)OCC(C)C)ccc1O [Compound 9, Isobutyl-2-(4-hydroxy-3-methoxy-phenyl)acetate] | 100% | 68%
CCC(CC)COC(=O)Cc1ccc(O)c(OC)c1 [Compound 23, 2-Ethylbutyl-2-(4-hydroxy-3-methoxy-phenyl)acetate] | 99.7% | 62.1%
CCCC(CC)OC(=O)Cc1ccc(O)c(OC)c1 (stereo not drawn) [Compound 3, 1-Ethylbutyl-2-(4-hydroxy-3-methoxy-phenyl)acetate] | 87.1% | 62.5%
CCC/C=C/COC(=O)Cc1ccc(O)c(OC)c1 [Compound 5, [(E)-Hex-2-enyl]-2-(4-hydroxy-3-methoxy-phenyl)acetate] | 101% | 96.5%
COc1cc(CC(=O)OCCC(C)C)ccc1O [Compound 10, Isopentyl-2-(4-hydroxy-3-methoxy-phenyl)acetate] | 99.8% | 82.7%
